Reference: patent US8685977B2, “Chemical compounds” (Pfizer Limited, priority 2010, dated 2014)

Molecular target: T1, Nav1.7 (or SCN9A) channel (Homo sapiens, UniProt Q15858)
T1 construct: expressed in transfected cells
Assay: Nav1.7 PatchXpress 7000 automated electrophysiology assay (HEK cells stably expressing hSCN9A)
Assay type: cell-based
Conditions: voltage-clamped at V1/2 of inactivation, read-out: Nav1.7 EIC50
Description: The ability of the compounds of formula (I) to block the Nav1.7 (or SCN9A) channel was measured using the assays described below.
Human Embryonic Kidney (HEK) cells were transfected with an hSCN9A construct using lipofectamine reagent (Invitrogen), using standard techniques. Cells stably expressing the hSCN9A constructs were identified by their resistance to G-418 (400 μg/ml). Clones were screened for expression using the whole-cell voltage-clamp technique.
HEK cells stably transfected with hSCN9A were maintained in DMEM medium supplemented with 10% heat-inactivated fetal bovine serum and 400 μg/ml G-418 in an incubator at 37° C. with a humidified atmosphere of 10% CO2. For HTS, cells were harvested from flasks by trypsinization and replated in an appropriate multi-well plate (typically 96 or 384 wells/plate) such that confluence would be achieved within 24 hours of plating. For electrophysiological studies, cells were removed from the culture flask by brief trypsinization and re-plated at low density onto glass cover slips. Cells were typically used for electrophysiological experiments within 24 to 72 hours after plating.
Cover slips containing HEK cells expressing hSCN9A were placed in a bath on the stage of an inverted microscope and perfused (approximately 1 ml/minutes) with extracellular solution of the following composition: 138 mM NaCl, 2 mM CaCl2, 5.4 mM KCl, 1 mM MgCl2, 10 mM glucose, and 10 mM HEPES, pH 7.4, with NaOH. […] The osmolarity of the extracellular and intracellular solutions was 300 mOsm/kg and 295 mOsm/kg, respectively. All recordings were made at room temperature (22-24° C.) using AXOPATCH 200B amplifiers and PCLAMP software (Axon Instruments, Burlingame, Calif.).
HEK cells stably transfected with hSCN9A were viewed under Hoffman contrast optics and placed in front of an array of flow pipes emitting either control or compound-containing extracellular solutions. All compounds were dissolved in dimethyl sulfoxide to make 10 mM stock solutions, which were then diluted into extracellular solution to attain the final concentrations desired. […] The voltage-dependence of inactivation was determined by applying a series of depolarizing prepulses (8 sec long in 10 mV increments) from a negative holding potential. The voltage was then immediately stepped to 0 mV to assess the magnitude of the sodium current. Currents elicited at 0 mV were plotted as a function of prepulse potential to allow estimation of the voltage at which 50% of the channels were inactivated (midpoint of inactivation or V1/2). Compounds were tested for their ability to inhibit hSCN9A sodium channels by activating the channel with a 20 msec voltage step to 0 mV following an 8 second conditioning prepulse to the empirically determined V1/2. Compound effect (% inhibition) was determined by difference in current amplitude before and after application of test compounds. For ease of comparison, “estimated IC-50” (EIC50) values were calculated from single point electrophysiology data by the following equation, (tested concentration, uM)×(100-% inhibition/% inhibition). Inhibition values <20% and >80% were excluded from the calculation.
Electrophysiological assays were conducted with PatchXpress 7000 hardware and associated software (Molecular Devices Corp). All assay buffers and solutions were identical to those used in conventional whole-cell voltage clamp experiments described above. hSCN9A cells were grown as above to 50%-80% confluency and harvested by trypsinization. Trypsinized cells were washed and resuspended in extracellular buffer at a concentration of 1×10^6 cells/ml. The onboard liquid handling facility of the PatchXpress was used for dispensing cells and application of test compounds. Determination of the voltage midpoint of inactivation was as described for conventional whole-cell recordings. Cells were then voltage-clamped to the empirically determined V1/2 and current was activated by a 20 msec voltage step to 0 mV. […]

T1 sequence (Q15858 whole entry): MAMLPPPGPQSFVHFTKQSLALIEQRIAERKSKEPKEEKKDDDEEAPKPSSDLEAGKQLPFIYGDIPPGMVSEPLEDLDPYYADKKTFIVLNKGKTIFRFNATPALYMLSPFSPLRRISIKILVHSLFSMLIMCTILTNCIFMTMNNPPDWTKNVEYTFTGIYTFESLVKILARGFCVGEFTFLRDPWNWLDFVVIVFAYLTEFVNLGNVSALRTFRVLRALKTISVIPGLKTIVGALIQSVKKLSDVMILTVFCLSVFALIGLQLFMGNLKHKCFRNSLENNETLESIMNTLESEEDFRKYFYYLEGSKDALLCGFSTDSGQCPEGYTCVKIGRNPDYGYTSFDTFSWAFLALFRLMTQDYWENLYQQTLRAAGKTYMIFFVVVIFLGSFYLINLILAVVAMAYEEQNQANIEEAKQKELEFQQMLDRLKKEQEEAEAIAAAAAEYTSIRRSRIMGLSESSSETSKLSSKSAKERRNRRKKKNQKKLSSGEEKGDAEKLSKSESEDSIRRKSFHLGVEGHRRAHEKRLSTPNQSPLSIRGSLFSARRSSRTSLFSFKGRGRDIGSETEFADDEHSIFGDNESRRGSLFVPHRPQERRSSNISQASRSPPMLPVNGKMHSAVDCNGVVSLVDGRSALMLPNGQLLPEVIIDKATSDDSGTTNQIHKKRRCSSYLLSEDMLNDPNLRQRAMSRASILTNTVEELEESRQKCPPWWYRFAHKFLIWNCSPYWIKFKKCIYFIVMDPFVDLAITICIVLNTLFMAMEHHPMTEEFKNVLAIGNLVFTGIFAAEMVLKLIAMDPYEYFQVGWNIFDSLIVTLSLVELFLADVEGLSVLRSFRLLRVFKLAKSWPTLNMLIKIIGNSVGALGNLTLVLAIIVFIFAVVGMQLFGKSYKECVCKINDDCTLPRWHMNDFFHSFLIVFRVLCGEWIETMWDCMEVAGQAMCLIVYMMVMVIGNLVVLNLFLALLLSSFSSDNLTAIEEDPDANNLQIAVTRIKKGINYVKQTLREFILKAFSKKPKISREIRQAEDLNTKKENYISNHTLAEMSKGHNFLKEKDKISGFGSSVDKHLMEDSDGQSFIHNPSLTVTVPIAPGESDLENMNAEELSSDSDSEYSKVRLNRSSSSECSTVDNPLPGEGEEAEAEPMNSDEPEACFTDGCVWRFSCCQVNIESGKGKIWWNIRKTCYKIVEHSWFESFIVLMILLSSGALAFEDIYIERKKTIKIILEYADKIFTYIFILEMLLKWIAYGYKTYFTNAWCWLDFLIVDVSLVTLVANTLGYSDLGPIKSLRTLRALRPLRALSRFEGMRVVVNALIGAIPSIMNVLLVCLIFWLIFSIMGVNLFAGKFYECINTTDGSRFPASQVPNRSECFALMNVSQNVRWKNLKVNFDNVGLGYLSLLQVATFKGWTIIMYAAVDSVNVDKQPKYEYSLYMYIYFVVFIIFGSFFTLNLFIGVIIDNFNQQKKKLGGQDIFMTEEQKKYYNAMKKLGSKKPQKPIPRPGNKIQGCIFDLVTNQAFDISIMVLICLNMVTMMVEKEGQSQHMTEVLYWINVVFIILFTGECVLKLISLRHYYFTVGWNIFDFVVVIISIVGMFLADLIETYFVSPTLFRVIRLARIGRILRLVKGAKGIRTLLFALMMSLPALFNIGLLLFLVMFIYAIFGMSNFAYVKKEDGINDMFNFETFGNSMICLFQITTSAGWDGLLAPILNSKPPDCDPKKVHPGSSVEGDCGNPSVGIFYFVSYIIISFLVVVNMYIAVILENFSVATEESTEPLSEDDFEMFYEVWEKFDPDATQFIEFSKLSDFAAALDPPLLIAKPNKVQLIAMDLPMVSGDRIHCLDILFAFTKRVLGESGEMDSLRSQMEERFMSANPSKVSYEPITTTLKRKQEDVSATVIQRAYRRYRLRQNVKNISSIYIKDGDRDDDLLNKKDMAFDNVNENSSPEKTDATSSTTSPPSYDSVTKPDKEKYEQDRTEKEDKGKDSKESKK

| Structure (SMILES) | IC50 [nM] |
| --- | --- |
| CS(=O)(=O)NC(=O)c1cc(F)c(Oc2ccc(Cl)c(Cl)c2)cc1F [Example 21, 4-(3,4-dichlorophenoxy)-2,5-difluoro-N-(methylsulfonyl)benzamide] | 450 |
| Cc1ccc(F)c(Oc2ccc(C(=O)NS(C)(=O)=O)cc2)c1 [Example 205, 4-(2-fluoro-5-methylphenoxy)-N-(methylsulfonyl)benzamide] | 15000 |
| Cc1ccc(Oc2ccc(C(=O)NS(C)(=O)=O)cc2)cc1Cl [Example 198, 4-(3-chloro-4-methylphenoxy)-N-(methylsulfonyl)benzamide] | 1400 |
| COc1ccc(Oc2ccc(C(=O)NS(C)(=O)=O)cc2)c(Cl)c1 [Example 183, 4-(2-chloro-4-methoxyphenoxy)-N-(methylsulfonyl)benzamide] | > 10000 |
| CCc1cc(F)ccc1Oc1ccc(C(=O)NS(C)(=O)=O)c(F)c1 [Example 19, 4-(2-ethyl-4-fluorophenoxy)-2-fluoro-N-(methylsulfonyl)benzamide] | > 1000 |
| COc1ccc(Oc2cc(F)c(C(=O)NS(C)(=O)=O)cc2F)c(C#N)c1 [Example 116, 4-(2-cyano-4-methoxyphenoxy)-2,5-difluoro-N-(methylsulfonyl)benzamide] | > 3000 |
| CS(=O)(=O)NC(=O)c1cc(F)c(Oc2ccc(C#N)c(Cl)c2)cc1F [Example 95, 4-(3-chloro-4-cyanophenoxy)-2,5-difluoro-N-(methylsulfonyl)benzamide] | > 3000 |
| COc1c(C(=O)NS(C)(=O)=O)ccc(Oc2ccc(Cl)c(C(F)(F)F)c2)c1F [Example 78, 4-(4-chloro-3-(trifluoromethyl)phenoxy)-3-fluoro-2-methoxy-N-(methylsulfonyl)benzamide] | 4200 |
| CS(=O)(=O)NC(=O)c1ccc(Oc2cccc(OC(F)(F)F)c2)cc1 [Example 30, N-(methylsulfonyl)-4-[3-(trifluoromethoxy)phenoxy]benzamide] | 760 |
| Cc1cc(Oc2ccc(C(=O)NS(C)(=O)=O)cc2)ccc1Cl [Example 170, 4-(4-chloro-3-methylphenoxy)-N-(methylsulfonyl)benzamide] | 1900 |

Continued, values first:

| IC50 [nM] | Structure (SMILES) |
| --- | --- |
| 5400 | COc1cc(Oc2ccc(Cl)c(F)c2)ccc1C(=O)NS(C)(=O)=O [Example 228, 4-(4-chloro-3-fluorophenoxy)-2-methoxy-N-(methylsulfonyl)benzamide] |
| 320 | CS(=O)(=O)NC(=O)c1ccc(Nc2cccc(C(F)(F)F)c2)cc1 [Example 321, N-(methylsulfonyl)-4-(3-(trifluoromethyl)phenylamino)benzamide] |
| 8700 | CS(=O)(=O)NC(=O)c1ccc(Oc2cccc(F)c2)c(C#N)c1 [Example 284, 3-cyano-4-(3-fluorophenoxy)-N-(methylsulfonyl)benzamide] |
| 7000 | CS(=O)(=O)NC(=O)c1ccc(Oc2cccc(C#N)c2)c(Cl)c1 [Example 264, 3-chloro-4-(3-cyanophenoxy)-N-(methylsulfonyl)benzamide] |
| 2500 | Cc1cc(C(=O)NS(C)(=O)=O)ccc1Oc1ccc(F)cc1 [Example 237, 4-(4-fluorophenoxy)-3-methyl-N-(methylsulfonyl)benzamide] |
| 3700 | CS(=O)(=O)NC(=O)c1ccc(Oc2ccc(C#N)cc2)c(Cl)c1 [Example 270, 3-chloro-4-(4-cyanophenoxy)-N-(methylsulfonyl)benzamide] |
| 97 | CS(=O)(=O)NC(=O)c1cc(Cl)c(Oc2ccc(Cl)cc2)cc1F [Example 295, 5-chloro-4-(4-chlorophenoxy)-2-fluoro-N-(methylsulfonyl)benzamide] |
| > 10000 | CCS(=O)(=O)NC(=O)c1ccc(Oc2ccc(C)cc2)cc1 [Example 308, N-(ethylsulfonyl)-4-(4-methylphenoxy)benzamide] |
| 490 | CS(=O)(=O)NC(=O)c1ccc(Oc2ccc3ccccc3c2)c(Cl)c1 [Example 246, 3-chloro-N-(methylsulfonyl)-4-(2-naphthyloxy)benzamide] |
| 2800 | Cc1ccccc1Oc1ccc(C(=O)NS(C)(=O)=O)cc1Cl [Example 256, 3-chloro-4-(2-methylphenoxy)-N-(methylsulfonyl)benzamide] |
